In US4871730A, “Cephem compounds” (Fujisawa Pharmaceutical Co., Ltd., priority 1983, dated 1989):
Values after ≈ are worked out from the molar mass of the structure shown.

System: Escherichia coli 31
Experiment: Minimal inhibitory concentration (MIC), in vitro antibacterial activity by two-fold agar-plate dilution method
Format: cell-based
Details: heart infusion agar, 37° C, 20 hours
Experimental: In vitro antibacterial activity was determined by the two-fold agar-plate dilution method as described below.
One loopful of an overnight culture of each test strain in trypticase-soy broth (10^8 viable cells per ml) was streaked on heart infusion agar (HI-agar) containing graded concentrations of representative test compounds, and the minimal inhibitory concentration (MIC) was expressed in terms of μg/ml after incubation at 37° C for 20 hours.

MIC [µg/mL] | Compound
< 0.025 | CO/N=C(\C(=O)NC1C(=O)N2C(C(=O)[O-])=C(S/C=C\c3ccc[n+](C)c3)CSC12)c1csc(N)n1 (stereo not drawn) [Test compound (1), 7-[2-(2-Aminothiazol-4-yl)-2-methoxyiminoacetamido]-3-[(Z)-2-(1-methyl-3-pyridinio)-vinylthio]-3-cephem-4-carboxylate (syn isomer)]
< 0.025 | CO/N=C(\C(=O)NC1C(=O)N2C(C(=O)O)=C(S/C=C\c3cccnc3)CSC12)c1csc(N)n1 (stereo not drawn) [Test compound (2), 7-[2-(2-Aminothiazol-4-yl)-2-methoxyimino-acetamido]-3-[(Z)-2-(3-pyridyl)vinylthio]-3-cephem-4-carboxylic acid (syn isomer)]
0.05 (≈ 0.0916 µM) | C=CCO/N=C(\C(=O)NC1C(=O)N2C(C(=O)O)=C(S/C=C\c3cccnc3)CSC12)c1nsc(N)n1 (stereo not drawn) [Test compound (3), 7-[2-Allyloxyimino-2-(5-amino-1,2,4-thiadiazol-3-yl)acetamido]-3-[(Z)-2-(3-pyridyl)vinylthio]-3-cephem-4-carboxylic acid (syn isomer)]
< 0.025 | CCO/N=C(\C(=O)NC1C(=O)N2C(C(=O)[O-])=C(S/C=C\c3ccc[n+](C)c3)CSC12)c1csc(N)n1 (stereo not drawn) [Test compound (4), 7-[2-(2-Aminothiazol-4-yl)-2-ethoxyiminoacetamido]3-[(Z)-2-(1-methyl-3-piridinio)vinylthio]-3-cephem-4-carboxylate (syn isomer)]
